Here are results for six compounds from publication PMC2788676 (Journal of medicinal chemistry, 2009).

One test addresses μ-opioid receptor. The following applies: read-out: μ-opioid receptor Ki; cited from earlier work.
In the next test the target is human μ-opiate receptor (Homo sapiens, UniProt P35372). As to the kind of experiment: [35S]GTP-γ-S functional binding assay, CHO hMOR cells. The following applies: for Emax: read-out: μ-Agonism Emax %; for efficacy as μ-agonist (in words): [35S]GTP-γ-S functional assay. In kind it is biochemical. (In general: GTPγS resists hydrolysis and so accumulates on activated G proteins.)
human μ-opiate receptor, sequence (P35372 whole entry): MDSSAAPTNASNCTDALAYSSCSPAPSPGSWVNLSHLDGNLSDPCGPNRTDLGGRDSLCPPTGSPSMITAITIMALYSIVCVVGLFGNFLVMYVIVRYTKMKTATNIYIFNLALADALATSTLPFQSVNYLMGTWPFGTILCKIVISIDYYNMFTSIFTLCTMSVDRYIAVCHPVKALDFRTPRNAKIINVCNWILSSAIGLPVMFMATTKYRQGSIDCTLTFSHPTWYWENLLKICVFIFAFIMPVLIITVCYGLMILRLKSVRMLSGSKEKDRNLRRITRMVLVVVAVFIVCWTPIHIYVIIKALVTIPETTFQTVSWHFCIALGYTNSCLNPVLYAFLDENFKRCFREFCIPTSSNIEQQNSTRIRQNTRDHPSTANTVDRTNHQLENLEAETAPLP

A further test addresses κ-opiate receptor (Homo sapiens, UniProt P41145). As to the kind of experiment: [3H]U69,593 opioid receptor binding, transfected CHO cells. To be noted: relative to μ Ki.
The target in the next test is δ-opiate receptor (Homo sapiens, UniProt P41143). As to the kind of experiment: [3H]DADLE opioid receptor binding, transfected CHO cells. To be noted: relative to μ Ki.
δ-opiate receptor, sequence (P41143 whole entry): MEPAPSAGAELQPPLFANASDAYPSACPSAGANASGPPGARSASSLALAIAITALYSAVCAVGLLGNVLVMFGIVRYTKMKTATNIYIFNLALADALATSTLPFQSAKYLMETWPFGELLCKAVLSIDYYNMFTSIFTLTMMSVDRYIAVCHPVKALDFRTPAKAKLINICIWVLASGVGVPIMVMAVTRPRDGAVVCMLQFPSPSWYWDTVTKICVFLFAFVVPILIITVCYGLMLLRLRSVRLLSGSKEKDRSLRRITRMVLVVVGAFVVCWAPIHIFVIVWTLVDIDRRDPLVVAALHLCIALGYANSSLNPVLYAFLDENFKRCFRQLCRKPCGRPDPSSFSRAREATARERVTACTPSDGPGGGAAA

κ-opiate receptor, sequence (P41145 whole entry): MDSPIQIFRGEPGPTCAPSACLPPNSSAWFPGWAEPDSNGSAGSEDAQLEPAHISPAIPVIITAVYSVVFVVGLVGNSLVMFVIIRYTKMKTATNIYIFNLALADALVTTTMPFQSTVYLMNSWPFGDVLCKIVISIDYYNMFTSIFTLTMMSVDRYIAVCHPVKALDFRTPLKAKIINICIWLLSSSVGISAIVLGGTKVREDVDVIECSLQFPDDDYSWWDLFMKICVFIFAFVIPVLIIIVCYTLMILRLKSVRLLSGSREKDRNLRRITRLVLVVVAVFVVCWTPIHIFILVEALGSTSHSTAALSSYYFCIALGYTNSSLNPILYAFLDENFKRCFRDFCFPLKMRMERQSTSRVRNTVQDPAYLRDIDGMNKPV

On to `Oc1ccc2c(c1)[C@]13CCC[C@H](C1)NC[C@@H]3O2` (single isomer, unassigned) [para-d isomer, (3R*,6aS*11aR*)-1,3,4,5,6,11a-hexahydro-2H-3,6a-methanobenzofuro[2,3-c]azocin-8-ol], for which the Ki (in general, the equilibrium dissociation constant of an inhibitor or competing ligand from its target) at μ-opioid receptor was 1220 nM.

For `CC[C@@]12CCNC[C@@H]1Oc1ccc(O)cc12` [Compound 20, 4aS,9aR-(−)-cis-4a-Ethyl-1,2,3,4,4a,9a-hexahydrobenzofuro[2,3-c]pyridin-6-ol], at human μ-opiate receptor, the midpoint of the response, the EC50, lay at 150 ± 25 nM; the Kb turned out to be 95 nM; the Emax (as a rule, the size of the effect at its maximum, as opposed to the concentration needed) came to 97 ± 4%.

`CC[C@@]12CCN(C)C[C@@H]1Oc1ccc(O)cc12` [Compound 21, 4aS,9aR-(−)-cis-4a-Ethyl-2-methyl-1,2,3,4,4a,9a-hexahydrobenzofuro[2,3-c]pyridin-6-ol]: on human μ-opiate receptor, a half-maximal response (EC50) required 241 ± 47 nM, the “efficacy as μ-agonist (in words)” value was “little efficacy” and the Emax was 45 ± 2%.

Take `CC[C@@]12CCN(CCc3ccccc3)C[C@@H]1Oc1ccc(O)cc12` [Compound 22, 4aS,9aR-(−)-cis-4a-Ethyl-2-(2-phenylethyl)-1,2,3,4,4a,9a-hexahydrobenzofuro[2,3-c]pyridin-6-ol]: the “fold less affinity at the κ-receptor than at the μ-receptor” value at κ-opiate receptor is on record as “more than 100 fold”. Besides, the “fold less affinity at the δ-receptor than at the μ-receptor” value on δ-opiate receptor is reported as “more than 100 fold”. At human μ-opiate receptor, the midpoint of the response, the EC50, lay at 24 ± 6 nM; the “efficacy as μ-agonist (in words)” value is recorded as “potent agonist”; the Emax stood at 84 ± 4%.

Take `CC[C@@]12CCN(C[C@@H](O)c3ccccc3)C[C@@H]1Oc1ccc(O)cc12` [Compound 23, 4aS,9aR,2′S-(−)-cis-2-(2′-Hydroxy-2-phenylethyl)-4a-ethyl-1,2,3,4,4a,9a-hexahydrobenzofuro[2,3-c]pyridin-6-ol]: at human μ-opiate receptor, the EC50 – broadly, the concentration needed to bring the measured effect to its halfway point – came to 560 ± 60 nM and the Emax worked out at 100 ± 3%.

Regarding `CC[C@@]12CCN(C[C@H](O)c3ccccc3)C[C@@H]1Oc1ccc(O)cc12` [Compound 24, 4aS,9aR,2′R-(−)-cis-2-(2′-Hydroxy-2-phenylethyl)-4a-ethyl-1,2,3,4,4a,9a-hexahydrobenzofuro[2,3-c]pyridin-6-ol], on human μ-opiate receptor, the EC50 turned out to be 480 ± 90 nM and the Emax turned out to be 36 ± 2%.
